From patent EP0894089B9, “NOVEL HETEROCYCLIC COMPOUNDS HAVING ANTIDIABETIC, HYPOLIPIDAEMIC, ANTIHYPERTENSIVE PROPERTIES, PROCESS FOR THEIR PREPARATION AND PHARMACEUTICAL COMPOSITIONS CONTAINING THEM” (Dr. Reddy's Laboratories Ltd., priority 1997, dated 1997) come the findings set out here.

Structures can show the parent of a compound that is named as a salt.

The experiment relates to C57BL/KsJ-db/db mice. Nature of the experiment: blood sugar and triglycerides lowering activity in db/db mice (in vivo). Conditions: male C57BL/KsJ-db/db mice; for Triglyceride Lowering (%) / Reduction in Blood Glucose Level (%): 30 mg / kg oral gavage daily for 6 days, one hour after administration; for Triglyceride Lowering (%): plasma triglyceride on 6th day; for Reduction in Blood Glucose Level (%): random plasma glucose on 6th day. From the text: Mutation in colonies of laboratory animals and different sensitivities to dietary regimens have made the development of animal models with non-insulin dependent diabetes associated with obesity and insulin resistance possible. Genetic models such as db/db and ob/ob (See Diabetes, (1982) 31(1) : 1- 6) in mice and fa/fa and zucker rats have been developed by the various laboratories for understanding the pathophysiology of disease and testing the efficacy of new antidiabetic compounds (Diabetes, (1983) 32: 830-838; Annu. Rep. Sankyo Res. Lab. (1994). 46 : 1-57). The homozygous animals, C57 BL/KsJ-db/db mice developed by Jackson Laboratory, US, are obese, hyperglycemic, hyperinsulinemic and insulin resistant (J. Clin. Invest., (1990) 85 : 962-967), whereas heterozygous are lean and normoglycemic. In db/db model, a mouse progressively develops insulinopenia with age, a feature commonly observed in late stages of human type II diabetes when blood sugar levels are insufficiently controlled. The state of pancreas and its course vary according to the models. Since this model resembles that of type II diabetes mellitus, the compounds of the present invention were tested for blood sugar and triglycerides lowering activities.
Male C57BL/KsJ-db/db mice of 8 to 14 weeks age, having body weight range of 35 to 60 grams, procured from the Jackson Laboraotory, USA, were used in the experiment. The mice were provided with standard feed (National Institute of Nutrition, Hyderabad, India) and acidified water, ad libitum. The animals having more than 300 mg / dl blood sugar were used for testing. The number of animals in each group was 4.
The random blood sugar and triglyceride levels were measured by collecting blood (100 µl) through orbital sinus, using heparinised capillary in tubes containing EDTA which was centrifuged to obtain plasma. The plasma glucose and triglyceride levels were measured spectrometrically, by glucose oxidase and glycerol-3-PO4 oxidase/peroxidase enzyme (Dr. Reddy's Lab. Diagnostic Division Kits, Hyderabad, India) methods respectively. On 6th day the blood samples were collected one hour after administration of test compounds / vehicle for assessing the biological activity.
Test compounds were suspended on 0.25 % carboxymethyl cellulose and administered to test group at a dose of 30 mg / kg through oral gavage daily for 6 days. The control group received vehicle (dose 10 ml / kg).
The blood sugar and triglycerides lowering activities of the test compound was calculated according to the formula: Blood sugar / triglycerides lowering activity (%) = 1 -(DT/DC)/(TC/ZC)X 100 [formula] • ZC = Zero day control group value • DC = Zero day treated group value • TC = Control group value on test day • DT = Treated group value on the test day

As for `Cc1c(C)c2c(c(C)c1OCc1ccccc1)CCC(C)(CN1CCC[C@H]1COc1ccc(CC3SC(=O)NC3=O)cc1)O2` (stereo partly drawn) [Example 7, 5-[4-[N-(2RS)-6-Benzyloxy-2,5,7,8,-tetramethylchroman-2-ylmethyl]-(2S)-pyrrolidine-2-methoxy]phenyl methyl]thiazolidine-2,4-dione, sodium salt], the “Triglyceride Lowering (%)” value is on record as 70% and the “Reduction in Blood Glucose Level (%)” value stood at 36%.

With `Cc1c(C)c2c(c(C)c1OCc1ccccc1)C(CN1CCC[C@H]1COc1ccc(C=C3SC(=O)NC3=O)cc1)C(C)(C)O2` (stereo partly drawn) [Example 13, 5-[4-[N-[3(RS)-5-Benzyloxy-2,3-dihydro-2,2,4,6,7-pentamethylbenzofuran-3-ylmethyl]-(2S)-pyrrolidine-2-methoxy]phenylmethylene]thiazolidine-2,4-dione maleate], the “Triglyceride Lowering (%)” value was 42% and the “Reduction in Blood Glucose Level (%)” value is recorded as 45%.

Regarding `Cc1oc2c(C)c(C)c(OCc3ccccc3)c(C)c2c1CN1CCC[C@H]1COc1ccc(C=C2SC(=O)NC2=O)cc1` [Example 20, 5-[4-[N-(5-Benzyloxy-2,4,6,7-tetramethylbenzofuran-3-ylmethyl)-(2S)-pyrrolidine-2-methoxy]phenylmethylene]thiazolidine-2,4-dione], the “Triglyceride Lowering (%)” value is listed as 43% and the “Reduction in Blood Glucose Level (%)” value is listed as 16%.

Consider `Cc1c(C)c2c(c(C)c1O)CCC(C)(COc1ccc(CC3SC(=O)NC3=O)cc1)O2` (stereo not shown) [Troglitazone, reference compound], for which the “reduction in random blood sugar level” value (100 mg / kg, daily dose, on 6th day) worked out at 28%.
